The values that follow come from patent publication US11434242B2, “Dopamine-b-hydroxylase inhibitors” (BIAL-PORTELA & Cª, S.A., priority 2017, dated 2022).

The assay deals with T1, Dopamine beta hydroxylase (Homo sapiens, UniProt P09172).
T1 construct: 125 μl of plasma; tissue Instituto Português do Sangue Transplantação; host or cells: human plasma from healthy donors
T1 sequence (P09172 40-617 limits assumed): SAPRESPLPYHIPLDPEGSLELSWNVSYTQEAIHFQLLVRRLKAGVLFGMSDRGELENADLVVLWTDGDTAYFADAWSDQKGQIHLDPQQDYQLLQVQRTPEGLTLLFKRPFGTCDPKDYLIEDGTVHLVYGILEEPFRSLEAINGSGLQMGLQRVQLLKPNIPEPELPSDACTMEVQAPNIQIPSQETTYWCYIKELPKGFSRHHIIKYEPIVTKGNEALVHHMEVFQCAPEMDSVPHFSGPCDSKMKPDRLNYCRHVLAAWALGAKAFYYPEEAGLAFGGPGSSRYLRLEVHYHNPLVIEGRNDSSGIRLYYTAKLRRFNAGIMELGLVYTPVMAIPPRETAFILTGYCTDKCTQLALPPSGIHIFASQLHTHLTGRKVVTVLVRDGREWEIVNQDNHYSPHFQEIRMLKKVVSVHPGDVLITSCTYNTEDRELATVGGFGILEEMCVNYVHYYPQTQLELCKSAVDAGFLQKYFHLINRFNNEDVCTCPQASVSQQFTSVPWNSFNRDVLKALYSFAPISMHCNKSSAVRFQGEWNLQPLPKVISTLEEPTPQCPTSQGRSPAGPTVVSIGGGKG
As to the kind of experiment: Dopamine beta hydroxylase activity in human plasma. Type of assay: biochemical. Particulars: for Plasma (0.01 μM), activity in % of control: inhibitor 0.01 μM; for Plasma (0.1 μM), activity in % of control: inhibitor 0.1 μM; for Plasma (1 μM), activity in % of control: inhibitor 1 μM. The method in brief:
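Healthy-donor human plasma pre-incubated 10 min at 37° C with compound at final 10, 100 or 1000 nM in pH 5.0 acetate buffer with ascorbate, fumarate, pargyline, N-ethylmaleimide, catalase and copper sulfate. Tyramine substrate then added for 45 min; octopamine formed was isolated by SCX cartridge, periodate-converted and read at 330 nm; activity given as % control.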

`CC(C)NC(=O)Cc1c2n(c(=S)n1C)C[C@@]1(c3cc(Br)ccc3F)C[C@@H]21` [Example 284, 2-((5aS,6aR)-5a-(5-bromo-2-fluorophenyl)-2-methyl-3-thioxo-2,3,5,5a,6,6a-hexahydrocyclopropa[3,4]pyrrolo[1,2-c]imidazol-1-yl)-N-isopropylacetamide]: the “Plasma (0.01 μM), activity in % of control” value is 84.8 % of control and the “Plasma (0.1 μM), activity in % of control” value is reported as 41.9 % of control.
For the compound `Cl.O=C(Cc1[nH]c(=S)n2c1C[C@@H](c1c(F)ccc(Cl)c1F)C2)NCCc1ccccn1` [Example 106, (S)-2-(6-(3-chloro-2,6-difluorophenyl)-3-thioxo-2,5,6,7-tetrahydro-3H-pyrrolo[1,2-c]imidazol-1-yl)-N-(2-(pyridin-2-yl)ethyl)acetamide hydrochloride], the “Plasma (0.1 μM), activity in % of control” value is listed as 33.9 % of control and the “Plasma (1 μM), activity in % of control” value was 4.1 % of control.
The matching figures for `CN(C)CCCNC(=O)Cc1[nH]c(=S)n2c1C[C@H](c1c(F)c(F)cc(F)c1F)C2.Cl` [Example 71, (R)—N-(3-(dimethylamino)propyl)-2-(6-(2,3,5,6-tetrafluorophenyl)-3-thioxo-2,5,6,7-tetrahydro-3H-pyrrolo[1,2-c]imidazol-1-yl)acetamide Hydrochloride]: 57.0 % of control and 11.9 % of control.
The matching figures for `O=C(Cc1[nH]c(=S)n2c1C[C@H](c1c(F)c(F)cc(F)c1F)C2)NCCO` [Example 72, (R)—N-(2-hydroxyethyl)-2-(6-(2,3,5,6-tetrafluorophenyl)-3-thioxo-2,5,6,7-tetrahydro-3H-pyrrolo[1,2-c]imidazol-1-yl)acetamide]: 90.8 % of control and 28.9 % of control.
In the case of `Cn1c(CC(=O)NC2CCCC2)c2n(c1=S)C[C@@]1(c3cc(Br)ccc3F)C[C@@H]21` [Example 272, 2-((5aS,6aR)-5a-(5-bromo-2-fluorophenyl)-2-methyl-3-thioxo-2,3,5,5a,6,6a-hexahydrocyclopropa[3,4]pyrrolo[1,2-c]imidazol-1-yl)-N-cyclopentylacetamide], the “Plasma (0.01 μM), activity in % of control” value was 73.5 % of control and the “Plasma (0.1 μM), activity in % of control” value was 22.7 % of control.
The matching figures for `Cn1c(CC(=O)N[C@@H]2CCCOC2)c2n(c1=S)C[C@@]1(c3cc(Br)ccc3F)C[C@@H]21` [Example 277, 2-((5aS,6aR)-5a-(5-bromo-2-fluorophenyl)-2-methyl-3-thioxo-2,3,5,5a,6,6a-hexahydrocyclopropa[3,4]pyrrolo[1,2-c]imidazol-1-yl)-N—((R)-tetrahydro-2H-pyran-3-yl)acetamide]: 35.4 % of control and 3.4 % of control.
The like results for `Cn1c(CC(=O)NC2COC2)c2n(c1=S)C[C@H](c1c(F)ccc(Br)c1F)C2` [Example 413, (S)-2-(6-(3-bromo-2,6-difluorophenyl)-2-methyl-3-thioxo-2,5,6,7-tetrahydro-3H-pyrrolo[1,2-c]imidazol-1-yl)-N-(oxetan-3-yl)acetamide] were, in that order, 42.4 % of control and 3.1 % of control.
As for `Cn1c(CCN[C@@H]2CCOC2)c2n(c1=S)C[C@@]1(c3cc(Br)ccc3F)C[C@@H]21` [Example 359, (5aS,6aR)-5a-(5-bromo-2-fluorophenyl)-2-methyl-1-(2-(((R)-tetrahydrofuran-3-yl)amino)ethyl)-5,5a,6,6a-tetrahydrocyclopropa[3,4]pyrrolo[1,2-c]imidazole-3(2H)-thione], the “Plasma (0.01 μM), activity in % of control” value is 101.2 % of control and the “Plasma (0.1 μM), activity in % of control” value is 53.3 % of control.
The matching figures for `CN(C(=O)Cc1c2n(c(=S)n1C)C[C@@H](c1c(F)cccc1F)C2)C1COC1` [Example 448, (R)-2-(6-(2,6-difluorophenyl)-2-methyl-3-thioxo-2,5,6,7-tetrahydro-3H-pyrrolo[1,2-c]imidazol-1-yl)-N-methyl-N-(oxetan-3-yl)acetamide]: 93.3 % of control and 65.3 % of control.
The like results for `Cn1c(CCC(=O)O)c2n(c1=S)C[C@@H](c1c(F)c(F)cc(F)c1F)C2` [Example 260, (R)-3-(2-methyl-6-(2,3,5,6-tetrafluorophenyl)-3-thioxo-2,5,6,7-tetrahydro-3H-pyrrolo[1,2-c]imidazol-1-yl)propanoic Acid] were, in that order, 84.1 % of control and 26.5 % of control.
The like results for `Cn1c(CC(=O)O)c2n(c1=S)C[C@@]1(c3cc(Br)ccc3F)C[C@@H]21` [Example 275, 2-((5aS,6aR)-5a-(5-bromo-2-fluorophenyl)-2-methyl-3-thioxo-2,3,5,5a,6,6a-hexahydrocyclopropa[3,4]pyrrolo[1,2-c]imidazol-1-yl)acetic acid] were, in that order, 79.0 % of control and 24.4 % of control.
For the compound `COCCNC(=O)Cc1[nH]c(=S)n2c1C[C@@H](c1c(F)ccc(Cl)c1F)C2` [Example 107, (S)-2-(6-(3-chloro-2,6-difluorophenyl)-3-thioxo-2,5,6,7-tetrahydro-3H-pyrrolo[1,2-c]imidazol-1-yl)-N-(2-methoxyethyl)acetamide], the “Plasma (0.1 μM), activity in % of control” value was 40.1 % of control and the “Plasma (1 μM), activity in % of control” value is 6.3 % of control.
In the case of `O=C(Cc1[nH]c(=S)n2c1C[C@H](c1c(F)ccc(Br)c1F)C2)NC1CCCC1CO` (stereo partly drawn) [Example 120, 2-((R)-6-(3-bromo-2,6-difluorophenyl)-3-thioxo-2,5,6,7-tetrahydro-3H-pyrrolo[1,2-c]imidazol-1-yl)-N-(2-(hydroxymethyl)cyclopentyl)acetamide], the “Plasma (0.01 μM), activity in % of control” value is given as 132.5 % of control and the “Plasma (0.1 μM), activity in % of control” value was 86.2 % of control.
The like results for `O=C(Cc1[nH]c(=S)n2c1C[C@@H](c1c(F)ccc(Br)c1F)C2)NCc1cccnc1` [Example 124, (S)-2-(6-(3-bromo-2,6-difluorophenyl)-3-thioxo-2,5,6,7-tetrahydro-3H-pyrrolo[1,2-c]imidazol-1-yl)-N-(pyridin-3-ylmethyl)acetamide] were, in that order, 42.8 % of control and 3.3 % of control.
The like results for `O=C(Cc1[nH]c(=S)n2c1C[C@H](c1c(F)ccc(Br)c1F)C2)NCc1ccccn1` [Example 139, (R)-2-(6-(3-bromo-2,6-difluorophenyl)-3-thioxo-2,5,6,7-tetrahydro-3H-pyrrolo[1,2-c]imidazol-1-yl)-N-(pyridin-2-ylmethyl)acetamide] were, in that order, 77.8 % of control and 20.8 % of control.
In the case of `Cn1c(CC(=O)NCc2cnccn2)c2n(c1=S)C[C@H](c1c(F)ccc(Cl)c1F)C2` [Example 328, (S)-2-(6-(3-chloro-2,6-difluorophenyl)-2-methyl-3-thioxo-2,5,6,7-tetrahydro-3H-pyrrolo[1,2-c]imidazol-1-yl)-N-(pyrazin-2-ylmethyl)acetamide], the “Plasma (0.01 μM), activity in % of control” value is on record as 63.1 % of control and the “Plasma (0.1 μM), activity in % of control” value is reported as 9.4 % of control.
As to `Cn1c(CC(=O)N[C@@H]2CCOC2)c2n(c1=S)C[C@@]1(c3cc(Cl)ccc3F)C[C@@H]21` [Example 281, 2-((5aS,6aR)-5a-(5-chloro-2-fluorophenyl)-2-methyl-3-thioxo-2,3,5,5a,6,6a-hexahydrocyclopropa[3,4]pyrrolo[1,2-c]imidazol-1-yl)-N—((R)-tetrahydrofuran-3-yl)acetamide], the “Plasma (0.01 μM), activity in % of control” value is on record as 107.9 % of control and the “Plasma (0.1 μM), activity in % of control” value is listed as 29.8 % of control.
As to `CN(C(=O)Cc1[nH]c(=S)n2c1C[C@H](c1c(F)ccc(Br)c1F)C2)C1CCCCC1` [Example 132, (R)-2-(6-(3-bromo-2,6-difluorophenyl)-3-thioxo-2,5,6,7-tetrahydro-3H-pyrrolo[1,2-c]imidazol-1-yl)-N-cyclohexyl-N-methylacetamide], the “Plasma (0.01 μM), activity in % of control” value is recorded as 91.9 % of control and the “Plasma (0.1 μM), activity in % of control” value is recorded as 62.3 % of control.
The matching figures for `Cn1c(CC(=O)NC2COC2)c2n(c1=S)C[C@@]1(c3cc(Cl)ccc3F)C[C@@H]21` [Example 433, 2-((5aS,6aR)-5a-(5-chloro-2-fluorophenyl)-2-methyl-3-thioxo-2,3,5,5a,6,6a-hexahydrocyclopropa[3,4]pyrrolo[1,2-c]imidazol-1-yl)-N-(oxetan-3-yl)acetamide]: 56.9 % of control and 9.2 % of control.
